Experiments:
CYP2C9 = CYP2C9 (Homo sapiens, UniProt P11712); experiment: Inhibition of human CYP2C9 assessed as ratio of IC50 in absence of NADPH to IC50 for presence of NADPH using 7-methoxy-4-trifluoromethylcoumarin-3-acetic acid as substrate after 30 mins
CYP3A4 [1] = biological target: T1, CYP3A4 (Homo sapiens, UniProt P08684); experiment: Inhibition of human CYP3A4 assessed as ratio of IC50 in absence of NADPH to IC50 for presence of NADPH using 7-benzyloxyquinoline as substrate after 30 mins
T1 sequence (P08684 whole entry): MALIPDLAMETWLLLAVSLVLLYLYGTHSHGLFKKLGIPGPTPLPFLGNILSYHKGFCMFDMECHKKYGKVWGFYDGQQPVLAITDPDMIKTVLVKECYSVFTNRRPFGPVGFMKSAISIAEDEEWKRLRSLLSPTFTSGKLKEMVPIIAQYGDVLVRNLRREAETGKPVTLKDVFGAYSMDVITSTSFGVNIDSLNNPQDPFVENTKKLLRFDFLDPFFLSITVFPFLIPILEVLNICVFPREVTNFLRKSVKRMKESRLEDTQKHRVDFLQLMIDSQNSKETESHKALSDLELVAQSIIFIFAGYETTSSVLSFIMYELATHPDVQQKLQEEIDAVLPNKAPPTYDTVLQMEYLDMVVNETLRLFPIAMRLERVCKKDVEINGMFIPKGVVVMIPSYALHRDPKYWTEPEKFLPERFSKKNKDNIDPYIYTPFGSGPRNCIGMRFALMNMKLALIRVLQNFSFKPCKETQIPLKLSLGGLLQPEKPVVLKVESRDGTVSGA

Liver microsomes [2] = experiment: Metabolic stability in human liver microsomes assessed as GSH adduct formation at 100 uM after 90 mins by HPLC-MS analysis; conditions: 1.5 h
CYP2D6 = CYP2D6 (Homo sapiens, UniProt P10635); experiment: Inhibition of human CYP2D6 assessed as ratio of IC50 in absence of NADPH to IC50 for presence of NADPH using 4-methylaminoethyl-7-methoxycoumarin as substrate after 30 mins
Chain of CYP2D6 (P10635 whole entry): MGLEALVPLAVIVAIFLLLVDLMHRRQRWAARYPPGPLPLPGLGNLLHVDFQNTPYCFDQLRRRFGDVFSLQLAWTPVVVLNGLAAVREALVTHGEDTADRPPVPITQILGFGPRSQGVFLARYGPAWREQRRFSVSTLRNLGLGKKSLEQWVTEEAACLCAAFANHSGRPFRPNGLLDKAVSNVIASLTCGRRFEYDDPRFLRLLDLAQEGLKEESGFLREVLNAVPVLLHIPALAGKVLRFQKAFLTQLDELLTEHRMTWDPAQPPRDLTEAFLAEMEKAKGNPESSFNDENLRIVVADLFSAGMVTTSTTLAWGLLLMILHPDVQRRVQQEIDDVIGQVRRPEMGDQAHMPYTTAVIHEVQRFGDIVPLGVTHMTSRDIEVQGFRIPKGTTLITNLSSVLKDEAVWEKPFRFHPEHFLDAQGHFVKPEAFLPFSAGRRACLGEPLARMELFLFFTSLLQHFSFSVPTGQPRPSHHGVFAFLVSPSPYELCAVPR

CYP2C19 = CYP2C19 (Homo sapiens, UniProt P33261); experiment: Inhibition of human CYP2C19 assessed as ratio of IC50 in absence of NADPH to IC50 for presence of NADPH using 3-butyryl-7-methoxycoumarin as substrate after 30 mins
Chain of CYP2C19 (P33261 whole entry): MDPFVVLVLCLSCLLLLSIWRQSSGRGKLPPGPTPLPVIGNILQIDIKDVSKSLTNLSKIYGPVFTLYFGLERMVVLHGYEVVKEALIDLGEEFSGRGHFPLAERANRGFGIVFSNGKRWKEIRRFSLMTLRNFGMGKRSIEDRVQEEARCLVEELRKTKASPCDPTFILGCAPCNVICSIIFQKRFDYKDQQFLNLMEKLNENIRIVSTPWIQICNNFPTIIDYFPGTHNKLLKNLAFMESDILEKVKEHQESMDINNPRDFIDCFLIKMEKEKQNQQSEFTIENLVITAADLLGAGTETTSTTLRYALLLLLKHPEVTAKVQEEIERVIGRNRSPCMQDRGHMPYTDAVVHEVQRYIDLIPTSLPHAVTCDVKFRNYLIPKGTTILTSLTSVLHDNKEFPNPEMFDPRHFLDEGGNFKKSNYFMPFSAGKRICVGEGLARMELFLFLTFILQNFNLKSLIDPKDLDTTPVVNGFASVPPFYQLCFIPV

CYP3A4 [3] = biological target: T1, CYP3A4; experiment: Inhibition of human CYP3A4 assessed as ratio of IC50 in absence of NADPH to IC50 for presence of NADPH using diethoxyfluorescein as substrate after 30 mins
Liver microsomes [4] = experiment: Metabolic stability in human liver microsomes assessed as low signal/noise ratio (S/N of 1 to 10) by measuring GSH adduct formation at 100 uM after 90 mins by HPLC-MS analysis; assay type: ADME, Microsome; conditions: 1.5 h
Liver microsomes [5] = experiment: Metabolic stability in human liver microsomes assessed as high signal/noise ratio (S/N of >100) by measuring GSH adduct formation at 100 uM after 90 mins by HPLC-MS analysis; conditions: 1.5 h
CYP1A2 = biological target: T2, CYP1A2 (Homo sapiens, UniProt P05177); experiment: Inhibition of human CYP1A2 assessed as ratio of IC50 in absence of NADPH to IC50 for presence of NADPH using ethoxyresorufin as substrate after 30 mins
T2 sequence (P05177 whole entry): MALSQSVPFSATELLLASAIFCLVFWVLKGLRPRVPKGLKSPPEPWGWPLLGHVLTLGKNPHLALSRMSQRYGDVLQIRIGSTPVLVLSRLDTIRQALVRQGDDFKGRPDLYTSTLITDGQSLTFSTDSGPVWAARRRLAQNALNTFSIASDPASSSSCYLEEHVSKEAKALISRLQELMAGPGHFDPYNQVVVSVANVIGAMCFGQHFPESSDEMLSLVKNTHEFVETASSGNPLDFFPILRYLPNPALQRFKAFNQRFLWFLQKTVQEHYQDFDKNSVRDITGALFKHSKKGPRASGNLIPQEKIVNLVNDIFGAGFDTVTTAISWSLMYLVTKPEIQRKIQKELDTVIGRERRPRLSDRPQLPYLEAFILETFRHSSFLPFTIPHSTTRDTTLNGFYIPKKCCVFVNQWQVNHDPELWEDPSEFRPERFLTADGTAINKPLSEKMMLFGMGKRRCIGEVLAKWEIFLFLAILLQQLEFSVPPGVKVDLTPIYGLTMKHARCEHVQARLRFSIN

Liver microsomes [6] = conditions: human, 1.5 h, 100 µM
[7] = probe 4-methylaminoethyl-7-methoxycoumarin
[8] = probe 3-butyryl-7-methoxycoumarin

Chain of CYP2C9 (P11712 whole entry): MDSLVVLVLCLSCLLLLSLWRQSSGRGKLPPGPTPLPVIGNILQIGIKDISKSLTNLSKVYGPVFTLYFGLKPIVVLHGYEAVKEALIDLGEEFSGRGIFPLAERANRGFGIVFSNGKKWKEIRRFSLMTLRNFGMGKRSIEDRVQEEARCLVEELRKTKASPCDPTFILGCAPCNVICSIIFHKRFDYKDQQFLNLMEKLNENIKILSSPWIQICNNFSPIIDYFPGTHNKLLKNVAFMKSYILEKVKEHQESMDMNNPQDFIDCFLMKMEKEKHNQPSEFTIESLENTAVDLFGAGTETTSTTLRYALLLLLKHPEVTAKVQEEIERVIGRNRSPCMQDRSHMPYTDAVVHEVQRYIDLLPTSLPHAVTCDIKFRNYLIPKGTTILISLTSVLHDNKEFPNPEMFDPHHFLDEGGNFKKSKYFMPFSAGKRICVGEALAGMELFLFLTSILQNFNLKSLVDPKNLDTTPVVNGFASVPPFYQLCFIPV

C1CCC(C(CC2CCCCN2)C2CCCCC2)CC1 (centres undefined) [PERHEXILINE]
IC50 shift at 0.5 h (CYP2C9): < 2

NNC(=O)c1ccncc1 [ISONIAZID]
IC50 shift at 0.5 h (CYP3A4 [1]): > 5 | Stability (Liver microsomes [2]): Stable | IC50 shift at 0.5 h (CYP2D6): > 5 | IC50 shift at 0.5 h (CYP2C19): > 5 | IC50 shift at 0.5 h (CYP3A4 [3]): > 5

C[C@](N)(Cc1ccc(O)c(O)c1)C(=O)O [METHYLDOPA]
Stability (Liver microsomes [4]): Unstable

O=C(O)COc1ccc(C(=O)c2cccs2)c(Cl)c1Cl
Stability (Liver microsomes [2]): Stable | IC50 shift at 0.5 h (CYP2C9): 2 | IC50 shift at 0.5 h (CYP2C19): < 2

CCOC(=O)n1ccn(C)c1=S [CARBIMAZOLE]
IC50 shift at 0.5 h (CYP3A4 [1]): > 5 | Stability (Liver microsomes [5]): Unstable | IC50 shift at 0.5 h (CYP2D6): > 5 | IC50 shift at 0.5 h (CYP3A4 [3]): > 5

CN1C(C(=O)Nc2ccccn2)=C(O)c2ccccc2S1(=O)=O [PIROXICAM]
Stability (Liver microsomes [4]): Unstable

CC(c1cc2ccccc2s1)N(O)C(N)=O (centres undefined) [ZILEUTON]
Stability (Liver microsomes [2]): Stable | IC50 shift at 0.5 h (CYP1A2; probe ethoxyresorufin): > 5

COc1cc(C(=O)NS(=O)(=O)c2ccccc2C)ccc1Cc1cn(C)c2ccc(NC(=O)OC3CCCC3)cc12 [ZAFIRLUKAST]
IC50 shift at 0.5 h (CYP3A4 [1]; probe 7-benzyloxyquinoline): 2 | IC50 shift at 0.5 h (CYP3A4 [3]; probe diethoxyfluorescein): > 5

CS(=O)(=O)Nc1ccc([N+](=O)[O-])cc1Oc1ccccc1 [NIMESULIDE]
IC50 shift at 0.5 h (CYP3A4 [1]): < 2 | Stability (Liver microsomes [4]): Unstable | IC50 shift at 0.5 h (CYP3A4 [3]): 2

CC/C(=C(/CC)c1ccc(O)cc1)c1ccc(O)cc1 [DIETHYLSTILBESTROL]
Stability (Liver microsomes [5]): Unstable | IC50 shift at 0.5 h (CYP1A2): 2

CN1CCC[C@@H]1CCO[C@](C)(c1ccccc1)c1ccc(Cl)cc1 [CLEMASTINE]
IC50 shift at 0.5 h (CYP3A4 [1]): > 5 | Stability (Liver microsomes [2]): Stable | IC50 shift at 0.5 h (CYP2C19): < 2 | IC50 shift at 0.5 h (CYP3A4 [3]): 2

COc1cccc2c1C(=O)c1c(O)c3c(c(O)c1C2=O)C[C@@](O)(C(=O)CO)C[C@@H]3O[C@H]1C[C@H](N)[C@H](O)[C@H](C)O1 [DOXORUBICIN]
IC50 shift at 0.5 h (CYP3A4 [1]): > 5 | Stability (Liver microsomes [6]): Unstable | IC50 shift at 0.5 h (CYP3A4 [3]): 2

CC(C)C(=O)Nc1ccc([N+](=O)[O-])c(C(F)(F)F)c1 [FLUTAMIDE]
Stability (Liver microsomes [6]): Unstable | IC50 shift at 0.5 h (CYP2D6): < 2 | IC50 shift at 0.5 h (CYP1A2): < 2 | IC50 shift at 0.5 h (CYP3A4 [3]): < 2

O=C1CCc2cc(OCCCCc3nnnn3C3CCCCC3)ccc2N1 [CILOSTAZOL]
IC50 shift at 0.5 h (CYP3A4 [1]): 2 | Stability (Liver microsomes [2]): Stable | IC50 shift at 0.5 h (CYP3A4 [3]): 2

CC1=C(/C=C/C(C)=C/C=C/C(C)=C/C(=O)O)C(C)(C)CCC1 [TRETINOIN]
IC50 shift at 0.5 h (CYP3A4 [1]; probe 7-benzyloxyquinoline): > 5 | Stability (Liver microsomes [2]): Stable | IC50 shift at 0.5 h (CYP2D6; [7]): 2 | IC50 shift at 0.5 h (CYP1A2; probe ethoxyresorufin): < 2 | IC50 shift at 0.5 h (CYP2C19; [8]): 2 | IC50 shift at 0.5 h (CYP3A4 [3]; probe diethoxyfluorescein): 2

Nc1ccc(S(=O)(=O)c2ccc(N)cc2)cc1 [DAPSONE]
Stability (Liver microsomes [4]): Unstable

Oc1ccc2c(c1)[C@@]13CCCC[C@@]1(O)[C@@H](C2)N(CC1CCC1)CC3 [BUTORPHANOL]
Stability (Liver microsomes [2]): Stable | IC50 shift at 0.5 h (CYP2D6; [7]): < 2

C#C[C@]1(O)CC[C@H]2[C@@H]3CCc4cc(OC)ccc4[C@H]3CC[C@@]21C [MESTRANOL]
IC50 shift at 0.5 h (CYP3A4 [1]; probe 7-benzyloxyquinoline): > 5 | Stability (Liver microsomes [6]): Unstable | IC50 shift at 0.5 h (CYP3A4 [3]; probe diethoxyfluorescein): > 5

C[C@]12C=CC(=O)C=C1CC[C@@H]1[C@@H]2C(=O)C[C@@]2(C)[C@H]1CC[C@]2(O)C(=O)CO [PREDNISONE]
Stability (Liver microsomes [4]): Unstable

Nc1ccc(S(=O)(=O)Nc2ccnn2-c2ccccc2)cc1 [SULFAPHENAZOLE]
Stability (Liver microsomes [4]): Unstable

N[C@@H](Cc1cc(I)c(Oc2ccc(O)c(I)c2)c(I)c1)C(=O)O [LIOTHYRONINE]
Stability (Liver microsomes [4]): Unstable

CN1CCN(CCCN2c3ccccc3Sc3ccc(Cl)cc32)CC1 [PROCHLORPERAZINE]
Stability (Liver microsomes [4]): Unstable

Clc1ccccc1C(c1ccccc1)(c1ccccc1)n1ccnc1 [CLOTRIMAZOLE]
Stability (Liver microsomes [2]): Stable | IC50 shift at 0.5 h (CYP2D6): < 2 | IC50 shift at 0.5 h (CYP1A2): 2

Oc1ccc2c3c1O[C@H]1[C@@H](O)CC[C@@]4(O)[C@@H](C2)N(CC2CCC2)CC[C@]314 [NALBUPHINE]
Stability (Liver microsomes [2]): Stable | IC50 shift at 0.5 h (CYP2C9): 2

C[N+]1(C)[C@@H]2CC[C@H]1C[C@@H](OC(=O)C(O)c1ccccc1)C2 (some centres undefined) [HOMATROPINE METHYLBROMIDE]
IC50 shift at 0.5 h (CYP2D6; [7]): < 2

C#C[C@]1(O)CC[C@H]2[C@@H]3CCc4cc(O)ccc4[C@H]3CC[C@@]21C [ETHINYL ESTRADIOL]
IC50 shift at 0.5 h (CYP3A4 [1]; probe 7-benzyloxyquinoline): 2 | Stability (Liver microsomes [5]): Unstable | IC50 shift at 0.5 h (CYP3A4 [3]; probe diethoxyfluorescein): 2

C[C@H]1[C@H](c2ccccc2)OCCN1C [PHENDIMETRAZINE]
Stability (Liver microsomes [4]): Unstable

Cc1cccc(C)c1NC(=O)C1CCCCN1C (centres undefined) [MEPIVACAINE]
IC50 shift at 0.5 h (CYP3A4 [1]; probe 7-benzyloxyquinoline): 2 | Stability (Liver microsomes [2]): Stable | IC50 shift at 0.5 h (CYP3A4 [3]; probe diethoxyfluorescein): 2

COCCCC/C(=N\OCCN)c1ccc(C(F)(F)F)cc1 [FLUVOXAMINE]
Stability (Liver microsomes [5]): Unstable | IC50 shift at 0.5 h (CYP2D6; [7]): 2 | IC50 shift at 0.5 h (CYP1A2; probe ethoxyresorufin): < 2

CC(C)OC(=O)C(C)(C)Oc1ccc(C(=O)c2ccc(Cl)cc2)cc1 [FENOFIBRATE]
Stability (Liver microsomes [2]): Stable | IC50 shift at 0.5 h (CYP2D6): 2 | IC50 shift at 0.5 h (CYP1A2): > 5 | IC50 shift at 0.5 h (CYP2C19): < 2 | IC50 shift at 0.5 h (CYP3A4 [3]): < 2

COc1cc2c(c(OC)c1OC)-c1ccc(OC)c(=O)cc1[C@@H](NC(C)=O)CC2 [COLCHICINE]
Stability (Liver microsomes [4]): Unstable

Cc1cc(C(C)(C)C)c(O)c(C(C)(C)C)c1 [BUTYLATED HYDROXYTOLUENE]
Stability (Liver microsomes [4]): Unstable

Cc1cccc(CN2CCN(C(c3ccccc3)c3ccc(Cl)cc3)CC2)c1 (centres undefined) [MECLIZINE]
IC50 shift at 0.5 h (CYP3A4 [1]; probe 7-benzyloxyquinoline): > 5 | Stability (Liver microsomes [2]): Stable | IC50 shift at 0.5 h (CYP2C19; [8]): > 5 | IC50 shift at 0.5 h (CYP3A4 [3]; probe diethoxyfluorescein): 2

O=C(OCC(O)CO)c1ccccc1Nc1ccnc2cc(Cl)ccc12 (centres undefined) [GLAFENINE]
Stability (Liver microsomes [4]): Unstable

CCN(CC)CCNc1ccc(CO)c2sc3ccccc3c(=O)c12 [HYCANTHONE]
Stability (Liver microsomes [5]): Unstable | IC50 shift at 0.5 h (CYP1A2): > 5 | IC50 shift at 0.5 h (CYP3A4 [3]): 2

Nc1c2c(nc3ccccc13)CCCC2 [TACRINE]
Stability (Liver microsomes [2]): Stable | IC50 shift at 0.5 h (CYP2C9): 2 | IC50 shift at 0.5 h (CYP2C19): < 2

CC1(C)[C@@H](O)CC[C@]2(C)[C@H]3C(=O)C=C4[C@@H]5C[C@@](C)(C(=O)O)CC[C@]5(C)CC[C@@]4(C)[C@]3(C)CC[C@@H]12 [ENOXOLONE]
Stability (Liver microsomes [2]): Stable | IC50 shift at 0.5 h (CYP1A2; probe ethoxyresorufin): 2

COc1ccc(CN(CCN(C)C)c2ccccn2)cc1 [PYRILAMINE]
Stability (Liver microsomes [6]): Unstable | IC50 shift at 0.5 h (CYP2D6; [7]): 2

CCCc1cc(=O)[nH]c(=S)[nH]1 [PROPYLTHIOURACIL]
IC50 shift at 0.5 h (CYP3A4 [1]): > 5 | Stability (Liver microsomes [5]): Unstable | IC50 shift at 0.5 h (CYP3A4 [3]): > 5

CC[C@H]1OC(=O)[C@H](C)[C@@H](O[C@H]2C[C@@](C)(OC)[C@@H](O)[C@H](C)O2)[C@H](C)[C@@H](O[C@@H]2O[C@H](C)C[C@H](N(C)C)[C@H]2O)[C@](C)(OC)C[C@@H](C)C(=O)[C@H](C)[C@@H](O)[C@]1(C)O [CLARITHROMYCIN]
IC50 shift at 0.5 h (CYP3A4 [1]; probe 7-benzyloxyquinoline): > 5 | Stability (Liver microsomes [2]): Stable | IC50 shift at 0.5 h (CYP3A4 [3]; probe diethoxyfluorescein): > 5

CC(=O)N1CCN(c2ccc(OCC3COC(Cn4ccnc4)(c4ccc(Cl)cc4Cl)O3)cc2)CC1 (centres undefined) [KETOCONAZOLE]
Stability (Liver microsomes [4]): Unstable
